Laboratory results: patent EP4671247A1, “SUBSTITUTED PYRAZOLOPYRIMIDINE COMPOUND AND PHARMACEUTICAL USE THEREOF” (Japan Tobacco Inc., priority 2023, dated 2024)
Where two headings read alike, the source gives them in different places.

Molecular target: T1, NLRP3 inflammasome (Homo sapiens, UniProt Q96P20)
T1 construct: host or cells: THP1-Null cells (PMA-differentiated, LPS-primed, nigericin-stimulated)
Test: Evaluation of NLRP3 inflammasome inhibitory activity (inhibition of IL-1β production in LPS/Nigericin-stimulated THP1-Null cells, AlphaLISA)
Type: cell-based
Settings: PMA, 1 µg/mL Lipopolysaccharides 3 hours, Nigericin 7.5 µmol/L 1.5 hours
Procedure: The NLRP3 inflammasome inhibitory activity of test compounds were evaluated on the basis of the inhibitory activity of the IL-1β production in THP1-Null cells (Product Number: thp-null, InvivoGen).
The supernatant of the culture was removed, and thereto was added media for assay (25 µL/well) containing 1 µg/mL Lipopolysaccharides (Product Number: L2654, Sigma-Aldrich (registered trademark)). […] The supernatant of the culture was removed. […] A solution containing a test compound (20 µL/well) was added to test compound-setting wells. […] The supernatant of the culture was cryonically stored (set at -20°C) until measurement of IL-1β.
The amount of IL-1β in the culture supernatant was quantitated with AlphaLISA (registered trademark) Human IL-1β Detection Kit (Product Number: AL220C, Perkin Elmer). Fluorescence intensity was measured with a microplate reader EnSpier (Model number: 2300-00J, Perkin Elmer) or EnSight (Model number: HH34000000, Perkin Elmer) according to procedure manuals attached thereto. Inhibition rates of the test compound-setting wells were calculated on the basis of 100% for the blank-setting wells and 0% for the control-setting wells.

[1] = IL-1β production in THP1-Null cells, read-out: IC50
[2] = IC50, IL-1β production in THP1-Null cells
[3] = IL-1β production in THP1-Null cells

T1 sequence (Q96P20 whole entry): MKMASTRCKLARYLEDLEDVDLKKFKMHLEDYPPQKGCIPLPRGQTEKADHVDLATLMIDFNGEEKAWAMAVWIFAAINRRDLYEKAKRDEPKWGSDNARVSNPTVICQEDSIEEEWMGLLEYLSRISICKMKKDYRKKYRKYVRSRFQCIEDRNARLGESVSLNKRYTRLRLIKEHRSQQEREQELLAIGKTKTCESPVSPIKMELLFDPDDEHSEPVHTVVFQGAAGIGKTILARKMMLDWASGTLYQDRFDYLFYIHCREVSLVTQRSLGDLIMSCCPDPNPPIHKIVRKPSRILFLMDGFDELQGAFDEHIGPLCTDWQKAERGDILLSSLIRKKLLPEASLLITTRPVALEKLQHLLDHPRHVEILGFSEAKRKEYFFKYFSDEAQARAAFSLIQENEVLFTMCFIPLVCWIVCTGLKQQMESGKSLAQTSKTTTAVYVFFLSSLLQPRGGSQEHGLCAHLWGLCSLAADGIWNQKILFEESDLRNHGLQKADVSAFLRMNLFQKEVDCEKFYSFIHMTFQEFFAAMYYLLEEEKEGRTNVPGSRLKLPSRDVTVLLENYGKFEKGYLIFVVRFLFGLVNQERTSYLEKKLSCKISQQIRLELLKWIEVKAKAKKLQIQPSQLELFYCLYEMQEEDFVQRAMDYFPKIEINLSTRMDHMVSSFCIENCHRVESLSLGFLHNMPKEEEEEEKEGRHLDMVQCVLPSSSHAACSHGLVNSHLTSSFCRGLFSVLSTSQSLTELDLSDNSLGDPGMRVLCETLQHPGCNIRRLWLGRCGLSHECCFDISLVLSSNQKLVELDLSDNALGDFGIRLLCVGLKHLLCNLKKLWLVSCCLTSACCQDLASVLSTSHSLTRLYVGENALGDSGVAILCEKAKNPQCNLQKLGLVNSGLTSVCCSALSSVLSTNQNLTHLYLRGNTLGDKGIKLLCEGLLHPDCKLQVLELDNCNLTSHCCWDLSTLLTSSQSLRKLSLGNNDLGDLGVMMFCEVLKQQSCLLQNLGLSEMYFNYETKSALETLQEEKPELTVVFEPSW

Compound | IC50 [1] [nM] | also measured
Cc1cc(C2CC2)cc(C)c1-n1cc2c(=O)[nH]c(C34COC(C)(C3)C4)nc2n1 [Example 52] | 40 | –
COc1cc(C)c(-n2cc3c(=O)[nH]c(C4CC4)nc3n2)c(C)c1 [Example 53] | 140 | –
Cc1cc(OC(F)F)cc(C)c1-n1cc2c(=O)[nH]c(C3CC3)nc2n1 [Example 54] | 33 | –
Cc1cc(C(F)(F)F)cc(C)c1-n1cc2c(=O)[nH]c(C3CC3)nc2n1 [Example 55] | 31 | –
COCc1cc(C2CC2)cc(C)c1-n1cc2c(=O)[nH]c(C3CC3)nc2n1 [Example 58] | 36 | –
Cc1nn(C2CCC2)c(C)c1-n1cc2c(=O)[nH]c(C3CC3)nc2n1 [Example 59] | 1700 | –
Cc1cc(Br)cc(C)c1-n1cc2c(=O)[nH]c(C34CC(C3)C4)nc2n1 [Example 60] | – | IC50 [2]: 60 nM
Cc1c(-n2cc3c(=O)[nH]c(C4CC4)nc3n2)c(C(F)(F)F)nn1C(C)C [Example 61] | 460 | –
Cc1cc(Br)cc(C)c1-n1cc2c(=O)[nH]c(Cn3cccn3)nc2n1 [Example 62] | 230 | –
Cc1cc(OC(F)F)cc(C)c1-n1cc2c(=O)[nH]c(C3CCOCC3)nc2n1 [Example 64] | 22 | –
Cc1c(-n2cc3c(=O)[nH]c(C4CCCC4)nc3n2)c(C(F)(F)F)nn1C(C)C [Example 65] | 300 | –
Cc1cc(Br)cc(C)c1-n1cc2c(=O)[nH]c(CN3CCCC3=O)nc2n1 [Example 66] | 430 | –
COc1cc(C)c(-n2cc3c(=O)[nH]c(COCc4ccccc4)nc3n2)c(C)c1 [Example 67] | 780 | –
Cc1cc(Br)cc(C)c1-n1cc2c(=O)[nH]c(C3(F)CCC3)nc2n1 [Example 68] | 76 | –
Cc1cc(C2CC2)cc(C)c1-n1cc2c(=O)[nH]c(C3(F)CCC3)nc2n1 [Example 69] | 67 | –
Cc1cc(Br)cc(C)c1-n1cc2c(=O)[nH]c(C(C)(C)F)nc2n1 [Example 70] | 130 | –
Cc1cc(Br)cc(C)c1-n1cc2c(=O)[nH]c(C3CCCCC3)nc2n1 [Example 71] | 11 | –
CC(=O)c1c2c(=O)[nH]c(C3COC3)nc2nn1-c1c(C)cc(Br)cc1C [Example 72] | 57 | –
Cc1cc(C2CC2)cc(C)c1-n1cc2c(=O)[nH]c(C3(F)CCOCC3)nc2n1 [Example 73] | 21 | –
Cc1cc(Br)cc(C)c1-n1cc2c(=O)[nH]c(COCCC(C)(C)O)nc2n1 [Example 74] | 190 | –

Compound | IC50 [1] [nM] | also measured
Cc1cc(C2CC2)cc(OC(F)F)c1-n1cc2c(=O)[nH]c(C3CC3)nc2n1 [Example 75] | 11 | –
COCc1cc(OC(F)F)cc(C)c1-n1cc2c(=O)[nH]c(C3CC3)nc2n1 [Example 76] | 82 | –
Cc1cc(Br)cc(C)c1-n1cc2c(=O)[nH]c(C3COC3)nc2n1 [Example 77] | 14 | –
Cc1cc(C(C)(F)F)cc(C)c1-n1cc2c(=O)[nH]c(C3CC3)nc2n1 [Example 80] | 29 | –
Cc1cc(Br)cc(C)c1-n1cc2c(=O)[nH]c(C3CCOCC3)nc2n1 [Example 81] | 4 | –
Cc1cc(Br)cc(C)c1-n1nc2nc(C3CCOCC3)[nH]c(=O)c2c1C(F)F [Example 82] | 16 | –
Cc1cc(C2CC2)cc(C)c1-n1nc2nc(C3CC3)[nH]c(=O)c2c1CO [Example 83, 6-cyclopropyl-2-(4-cyclopropyl-2,6-dimethylphenyl)-3-(hydroxymethyl)-2,5-dihydro-4H-pyrazolo[3,4-d]pyrimidin-4-one] | 24 | –
Cc1cc(C2CC2)cc(C)c1-n1nc2nc(C3CC3)[nH]c(=O)c2c1CF [Example 84] | 15 | –
Cc1cc(C(C)(C)F)cc(C)c1-n1cc2c(=O)[nH]c(C3CC3)nc2n1 [Example 85] | – | IC50 [2]: 29 nM
Cc1cc(C2CC2)cc(C)c1-n1nc2nc(C3CC3)[nH]c(=O)c2c1C#N [Example 87] | 11 | –
COCc1c2c(=O)[nH]c(C3CC3)nc2nn1-c1c(C)cc(C2CC2)cc1C [Example 88, 6-cyclopropyl-2-(4-cyclopropyl-2,6-dimethylphenyl)-3-(methoxymethyl)-2,5-dihydro-4H-pyrazolo[3,4-d]pyrimidin-4-one] | 18 | –
Cc1cc(OC(F)F)cc(C)c1-n1cc2c(=O)[nH]c(C3CC(C)OC(C)C3)nc2n1 (stereo not shown) [Example 89] | 450 | –
Cc1cc(OC(F)F)cc(C)c1-n1cc2c(=O)[nH]c(C3CCN(C)CC3)nc2n1 [Example 90] | 68 | –
Cc1cc(Br)cc(C)c1-n1cc2c(=O)[nH]c([C@@H]3C[C@@H]3F)nc2n1 [Example 91] | – | IC50 [3]: 8 nM
Cc1cc(Br)cc(C)c1-n1cc2c(=O)[nH]c(C3CC3F)nc2n1 (stereo not shown) [Example 92] | – | IC50 [3]: 7 nM
COc1cc(C)c(-n2cc3c(=O)[nH]c(C45CC(CO)(CO4)C5)nc3n2)c(C)c1 [Example 94] | 220 | –
Cc1cc(C2CC2)cc(C)c1-n1cc2c(=O)[nH]c(C34CC(CO)(CO3)C4)nc2n1 [Example 95] | 42 | –
Cc1cc(Br)cc(C)c1-n1cc2c(=O)[nH]c(COCCO)nc2n1 [Example 96] | 270 | –
Cc1cc(Br)cc(C)c1-n1cc2c(=O)[nH]c(C3(F)CCOCC3)nc2n1 [Example 97] | 24 | –
CCOCCc1nc2nn(-c3c(C)cc(Br)cc3C)cc2c(=O)[nH]1 [Example 98] | 98 | –

Compound | IC50 [1] [nM] | also measured
COCCc1nc2nn(-c3c(C)cc(C4CC4)cc3C)cc2c(=O)[nH]1 [Example 99] | 43 | –
Cc1cc(C2CC2)cc(C)c1-n1cc2c(=O)[nH]c(CCF)nc2n1 [Example 101] | 24 | –
Cc1cc(Br)cc(C)c1-n1cc2c(=O)[nH]c(C3=CCOCC3)nc2n1 [Example 102] | 8 | –
Cc1cc(C2CC2(F)F)cc(C)c1-n1cc2c(=O)[nH]c(C3CC3(F)F)nc2n1 (stereo not shown) [Example 103] | 64 | –
Cc1cc(C2CC2)cc(C)c1-n1cc2c(=O)[nH]c(CO)nc2n1 [Example 105] | 13 | –
Cc1cc(C2CC2)cc(C)c1-n1cc2c(=O)[nH]c(CCO)nc2n1 [Example 106] | 28 | –
Cc1cc(C(C)(F)F)cc(C)c1-n1cc2c(=O)[nH]c(C3(F)CCOCC3)nc2n1 [Example 107] | 15 | –
Cc1cc(Br)cc(C)c1-n1cc2c(=O)[nH]c(C3(F)COC3)nc2n1 [Example 108] | 49 | –
Cc1cc(C(C)(C)F)cc(C)c1-n1cc2c(=O)[nH]c(C3(F)CCOCC3)nc2n1 [Example 109] | 17 | –
Cc1cc(C2CC2)cc(F)c1-n1cc2c(=O)[nH]c(C3(F)CCOCC3)nc2n1 [Example 110] | 19 | –
COc1cc(C2CC2)cc(C)c1-n1cc2c(=O)[nH]c(C3(F)CCOCC3)nc2n1 [Example 111] | 15 | –
Cc1cc(Br)cc(C)c1-n1cc2c(=O)[nH]c(CN3CCCCC3)nc2n1 [Example 112] | 140 | –
Cc1cc(C(C)(F)F)cc(C)c1-n1cc2c(=O)[nH]c(C3(F)COC3)nc2n1 [Example 116] | 280 | –
Cc1cc(C2CC2)cc(C)c1-n1cc2c(=O)[nH]c(C3=CCOCC3)nc2n1 [Example 131] | 5 | –
Cc1cc(Br)cc(C)c1-n1cc2c(=O)[nH]c(COC(F)F)nc2n1 [Example 132] | 24 | –
Cc1cc(OC(F)F)cc(C)c1-n1cc2c(=O)[nH]c(C3=CCOCC3)nc2n1 [Example 135] | 33 | –
Cc1cc(OC(F)F)cc(C)c1-n1cc2c(=O)[nH]c(C3(F)CCOCC3)nc2n1 [Example 136] | 49 | –
Cc1cc(C2CC2)cc(C)c1-n1cc2c(=O)[nH]c(COC(F)F)nc2n1 [Example 145] | 13 | –
